The text below walks through data of US10894817B2, “Fatty acid modified urocortin-2 analogs for the treatment of diabetes and chronic kidney disease” (priority 2016, dated 2021).

Data set [1] can be described thus: Pharmacokinetics, single intravenous dose, monkeys. As to conditions: for clearance: in vivo, CL.
Method: Plasma concentrations of compounds were determined by LC/MS methods. Each method measured the intact compound; peptide plus linked time extension. […] Two distinct layers were formed upon centrifugation with the compound and the IS located in the supernatant layer. An aliquot of the supernatant (80 μl) was transferred to a Thermo Protein Precipitation Plate with water (150 μl) and formic acid (25 μl) followed by mixing. A final 31% acetonitrile in 10% formic acid sample (10 μl) was loaded onto a Supelco Analytical Discovery BIO Wide Pore C5-3 column (5 cm×1 mm, 3 μm). The column effluent was directed into a Thermo Q-Exactive mass spectrometer for detection and quantitation.
Male Cynomolgus monkeys were administered a single subcutaneous dose or intravenous dose (96.4 nmol/kg) of a compound described herein in 20 mM Tris-HCl Buffer (pH 7) at a volume of 1 mL/kg. Blood was collected from each animal at 2, 6, 24, 48, 72, 96, 168, 240, 336, 408, and 504 hours postdose for pharmacokinetic characterization.
For data set [2] the following is noted: rat, in vivo, sc, 150 nmol/kg.
Method: Plasma concentrations of compounds were determined by LC/MS methods. Each method measured the intact compound; peptide plus linked time extension. For each assay, the compound and an analog, used as an internal standard (IS), were extracted from 100% mouse, rat or monkey plasma (25 μl) using acetonitrile. Two distinct layers were formed upon centrifugation with the compound and the IS located in the supernatant layer. An aliquot of the supernatant (80 μl) was transferred to a Thermo Protein Precipitation Plate with water (150 μl) and formic acid (25 μl) followed by mixing. A final 31% acetonitrile in 10% formic acid sample (10 μl) was loaded onto a Supelco Analytical Discovery BIO Wide Pore C5-3 column (5 cm×1 mm, 3 μm). The column effluent was directed into a Thermo Q-Exactive mass spectrometer for detection and quantitation.
Male Sprague Dawley rats were administered a single subcutaneous dose (50 or 150 nmol/kg) of a compound described herein in 20 mM Tris-HCl Tris Buffer (pH 8) at a volume of 0.26 or 0.77 mL/kg.
A further data set deals with remnant kidney mice. Kind of data set: Mouse remnant kidney model of hypertensive nephropathy (Example 4, 8 weeks). It counts as in vivo. As to conditions: 2.6 nmol/kg dose group. On the procedure: A mouse remnant kidney model (“remnant”) involving surgical reduction of ¾ of the entire renal mass is used as a preclinical model of hypertensive renal disease (Kidney Int. 64(1):350-5, (2003)).
Surgical reduction of renal mass (N=32 mice) (obtained by Taconic, Inc.) is performed by Taconic, Inc. in male 129S6 mice at 9-10 weeks of age. Randomization into 4 equivalent groups of 8 remnant kidney mice is done at 17 weeks post-surgery by urine albumin to creatinine ratio (ACR) and body weight. […]
Body weight is determined at baseline and at termination with a Metler Toledo Balance.
The heart and kidney are removed at necropsy and weighed on a Metler Toledo Balance. […] Serum is analyzed for creatinine on a Roche Hitachi Modular Analytics P analyzer with reagents from Roche. […]
Urine albumin and creatinine are determined on a Roche Hitachi Modular Analytics P analyzer. Urine creatinine is determined with the Creatinine Plus reagent by Roche. […]
Remnant kidneys are removed at study termination, fixed in formalin and processed for paraffin sectioning according to standard methodology. Sections of kidney are evaluated for renal lesions by a board certified pathologist. […]
Pathology data are statistically evaluated with R software by fitting an ordered logit model to the categorical scores, and then comparing the differences between different treatment groups. […]

The mark [3] stands for this setting: male Cynomolgus monkeys, single 96.4 nmol/kg i.v., individual animal.
The mark [4] stands for this setting: male, cynomolgus monkey, plasma, iv, 96.4 nmol/kg.

SMILES strings stand for the structures. Values joined by “and” are separate entries in the source; they are usually repeats but may differ in a detail not shown here. Identical values can stand only once. Starred links: 1 amine or outer side, 2 acyl side, 3 side chain; linkers in the order of their positions; H or OH if unused. Non-standard residues stand in square brackets, D forms with d. Residues, ends and D or L forms follow the SMILES beside them. Groups on a side chain read outwards from the residue. *: point of attachment. C20 diacid = O=C(O)CCCCCCCCCCCCCCCCCCC(=O)*; γGlu = O=C(O)[C@H](CCC(=O)[*:2])N[*:1]; NMeI = CC[C@H](C)[C@H](NC)C(=O)O; AEEA = NCCOCCOCC(=O)O

`CC[C@H](C)[C@H](NC(C)=O)C(=O)N[C@H](C(=O)N[C@@H](CC(C)C)C(=O)N[C@@H](CO)C(=O)N[C@@H](CC(C)C)C(=O)N[C@@H](CC(=O)O)C(=O)N[C@H](C(=O)N1CCC[C@H]1C(=O)N[C@H](C(=O)NCC(=O)N[C@@H](CC(C)C)C(=O)N[C@@H](CC(C)C)C(=O)N[C@@H](CCC(N)=O)C(=O)N[C@H](C(=O)N[C@@H](CC(C)C)C(=O)N[C@@H](CC(C)C)C(=O)N[C@@H](CCC(=O)O)C(=O)N[C@@H](CCC(N)=O)C(=O)N[C@@H](CCC(=O)O)C(=O)N[C@@H](CCCCN)C(=O)N[C@@H](CCC(N)=O)C(=O)N[C@@H](CCC(=O)O)C(=O)N[C@@H](CCCCN)C(=O)N[C@@H](CCC(=O)O)C(=O)N[C@@H](CCCCN)C(=O)N[C@@H](CCC(N)=O)C(=O)N[C@@H](CCC(N)=O)C(=O)N[C@@H](C)C(=O)N[C@@H](CCCCNC(=O)COCCOCCNC(=O)COCCOCCNC(=O)CC[C@H](NC(=O)CC[C@H](NC(=O)CCCCCCCCCCCCCCCCCCC(=O)O)C(=O)O)C(=O)O)C(=O)N[C@H](C(=O)N[C@@H](CC(N)=O)C(=O)N[C@@H](C)C(=O)N[C@@H](CCC(N)=O)C(=O)N[C@H](C(=O)N[C@@H](CC(C)C)C(=O)N[C@@H](C)C(=O)N[C@@H](CCC(N)=O)C(=O)N[C@H](C(N)=O)C(C)C)[C@@H](C)CC)[C@@H](C)O)[C@@H](C)CC)[C@@H](C)CC)C(C)C)C(C)C` [Example 2] (Ac-IVLSLDVPIGLLQILLEQEKQEKEKQQAK([AEEA-AEEA-γGlu-γGlu-C20 diacid])TNAQILAQV-NH2) gave a clearance in data set [1] (cynomolgus monkey, iv, 96.4 nmol/kg, male Cynomolgus monkeys, single 96.4 nmol/kg i.v., Mean) of 7.68 mL/day/kg. Besides, in data set [1] (cynomolgus monkey, iv, 96.4 nmol/kg, male Cynomolgus monkeys, single 96.4 nmol/kg i.v., individual animal), the clearance is 6.72 mL/day/kg. Also, in data set [1] (setting [3]), the “C0 (estimated plasma concentration at time zero)” value was 3.267 µM and 3.059 µM; the CL was found to be 8.64 mL/day/kg. Besides, in data set [1] (setting [4]), the total exposure AUC(0-inf) was 306 µM·h and the C0 came to 3.16 µM. This compound also showed an apparent clearance (CL/F) in data set [2] (CL/F) of 113 mL/day/kg. For the same compound, in data set [2] (T1/2), the half-life is 34 h.
Regarding `CC[C@H](C)[C@H](NC)C(=O)N[C@H](C(=O)N[C@@H](CC(C)C)C(=O)N[C@@H](CO)C(=O)N[C@@H](CC(C)C)C(=O)N[C@@H](CC(=O)O)C(=O)N[C@H](C(=O)N1CCC[C@H]1C(=O)N[C@H](C(=O)NCC(=O)N[C@@H](CC(C)C)C(=O)N[C@@H](CC(C)C)C(=O)N[C@@H](CCC(N)=O)C(=O)N[C@H](C(=O)N[C@@H](CC(C)C)C(=O)N[C@@H](CC(C)C)C(=O)N[C@@H](CCC(=O)O)C(=O)N[C@@H](CCC(N)=O)C(=O)N[C@@H](CCC(=O)O)C(=O)N[C@@H](CCCCN)C(=O)N[C@@H](CCC(N)=O)C(=O)N[C@@H](CCC(=O)O)C(=O)N[C@@H](CCCCN)C(=O)N[C@@H](CCC(=O)O)C(=O)N[C@@H](CCCCN)C(=O)N[C@@H](CCC(N)=O)C(=O)N[C@@H](CCC(N)=O)C(=O)N[C@@H](C)C(=O)N[C@@H](CCCCNC(=O)COCCOCCNC(=O)COCCOCCNC(=O)CC[C@H](NC(=O)CC[C@H](NC(=O)CCCCCCCCCCCCCCCCCCC(=O)O)C(=O)O)C(=O)O)C(=O)N[C@H](C(=O)N[C@@H](CC(N)=O)C(=O)N[C@@H](C)C(=O)N[C@@H](CCC(N)=O)C(=O)N[C@H](C(=O)N[C@@H](CC(C)C)C(=O)N[C@@H](C)C(=O)N[C@@H](CCC(N)=O)C(=O)N[C@H](C(N)=O)C(C)C)[C@@H](C)CC)[C@@H](C)O)[C@@H](C)CC)[C@@H](C)CC)C(C)C)C(C)C` [Example 4] (H-[NMeI]VLSLDVPIGLLQILLEQEKQEKEKQQAK([AEEA-AEEA-γGlu-γGlu-C20 diacid])TNAQILAQV-NH2), the “deaths during the study” value with remnant kidney mice was “one”.

Broadly, the clearance is a measure of how efficiently the substance is removed, as volume per time. For orientation: AUC(0-inf) means total exposure, with the tail of the curve extrapolated. A lower AUC(0-inf) goes with less exposure. What is called CL/F is the apparent clearance, not corrected for the fraction that reaches the circulation. For orientation: half-life means the time in which the quantity being followed falls by half. High values mean slow decline, low ones rapid decline.
